Experimental data from patent publication US12146168B2, “Human CGAS-DNA complex and encoded protein” (priority 2018, dated 2024).
“Also recorded” adds a separate entry of the source.

Legend:
V. cholerae = V. cholerae chemotaxis assay (overexpressed cGAMP synthases); format: cell-based, Vibrio cholerae; conditions: overexpression as MBP N-terminal fusion, arabinose induced
Experimental: V. cholerae strains were cultured at 37° C. on LB media (1% tryptone, 0.5% yeast extract, 0.5% NaCl w/v), stored at −80° C. in LB supplemented with 30% glycerol, and were all derivatives of streptomycin resistant C6706 dncV: Tn (to remove endogenous 3′3′ cGAMP synthesis) (Davies et al. (2012) Cell 149:358-370). Where appropriate, antibiotics and supplemented nutrients were used at the following concentrations: streptomycin (100 μg ml^−1), carbenicillin (100 μg ml^−1), and diaminopimelic acid (300 μg ml^−1). hcGAS (D157-F522) and mcGAS (P147-L507) were codon optimized for bacterial expression (Genscript and IDT respectively), and all cGAS enzymes and control genes were overexpressed from a custom plasmid pBAD24T, a conjugation-proficient version of pBAD24 that harbors an arabinose inducible promoter and a strong ribosomal binding site (Guzman et al. (1995) J Bacteriol 177:4121-4130) that was further modified to include a new multiple cloning site. All genes overexpressed in V. cholera were encoded as MBP N-terminal fusions except the MBP alone negative control vector (Table 5).
[…]. V. cholerae chemotaxis assays were performed as previously described (Davies et al. (2012) Cell 149:358-370). Briefly, chemotaxis medium (1% tryptone, 0.5% NaCl, 0.3% agar w/v) was prepared, autoclaved, and stored at 2x concentration; and chemotaxis plates were prepared 2-24 h prior to inoculation. 2x medium was melted, diluted to 1× with sterile water, and supplemented with 0.2% (w/v) arabinose. Deep-well plates (OmniTray w/Lid, Thermo Fisher) were poured at 40 ml/plate. Overnight, stationary phase cultures (16-24 h post inoculation) were diluted 10-fold with fresh LB, arrayed in a 96-well plate, then applied to the surface of a chemotaxis plate via pinning with a 96-pin, floating pin replicator (VP 408FH, V&P Scientific). Alternatively, 1 μl of diluted culture was applied to the surface of chemotaxis agar by pipetting. Chemotaxis plates were incubated at 30° C. for 16-24 h.
Chemotaxis was quantified by imaging plates at 16-24 h post inoculation and digitally measuring the area of motile bacteria using ImageJ (Schneider et al. (2012) Nat Methods 9:671-675). Chemotaxis area was normalized to MBP alone vector for each experiment for expression of “chemotaxis as a % of MBP”. Values were transformed into “chemotaxis repression” by calculating (chemotaxis as a % of MBP)-1, then normalizing this value to dncV. Chemotaxis repression was determined and used to simplify a direct relationship between cGAMP levels and plotted values.

[1] = system: 45 bp double-stranded interferon stimulatory DNA; assay: In vitro cGAS 2′3′ cGAMP synthesis assay; format: biochemical; conditions: for 2′3′ cGAMP synthesis: 45 bp DNA
Experimental: […]. Briefly, 1 μM cGAS (or other concentration as indicated) was incubated with a 45 bp double-stranded interferon stimulatory DNA (sense: 5′-[…]-3′, SEQ ID NO: 6; antisense: 5′-[…]-3′, SEQ ID NO: 7) (Stetson and Medzhitov (2006) Immunity 24:93-103) in the 20 μl reaction buffer containing 50 mM Tris-HCl pH 7.5, 35 mM KCl, 5 mM Mg(OAc)2, 1 mM DTT, 25 μM ATP, 25 μM GTP, and [α-^32P] ATP (˜1 μCi) at 37° C. for 30 min. Reactions were terminated by heating at 95° C. for 3 min, and subsequently incubated with 4 U of alkaline phosphatase (New England Biolabs) at 37° C. for 30 min to hydrolyze unreacted NTPs. One microliter of each reaction was spotted on a PEI-Cellulose F thin-layer chromatography plate (EMD Biosciences) developed with 1.5 M KH2PO4 (pH 3.8) as a running buffer. Radiolabeled products were detected by Typhoon Trio Variable Mode Imager system (GE Healthcare) and quantified with ImageQuant 5.2. […]. Briefly, ATP/GTP titrations (0, 5, 10, 25, 50, 100, 200, 400, 800, and 1000 μM) were performed in the presence of fixed cGAS (1 μM) and 45 bp dsDNA concentration (1.5 μM) in 10 μl of reaction buffer containing 50 mM Tris-HCl pH 7.5, 35 mM KCl, 5 mM Mg(OAc)2, 1 mM DTT, and [α-^32P] ATP (˜1 μCi) at 37° C. for 5 min. Reactions were terminated and analyzed using thin layer chromatography as indicated above. The ATP-dependent cGAS enzyme kinetics were plotted and fitted according to Michaelis-Menten substrate inhibition analysis in GraphPad Prism (version 7.0c).

45 bp dsDNA = assay: In vitro cGAS-DNA complex formation, electrophoretic mobility shift analysis; format: binding; conditions: 45 bp DNA, gradient dialysis
Experimental: cGAS-DNA complexes were stably assembled using a method adapted from a nucleosome assembly gradient dialysis protocol (Lee and Narlikar (2001) Current protocols in molecular biology Chapter 21, Unit 21.26), and complex formation was measured by electrophoretic mobility shift analysis. Briefly, a concentration gradient of recombinant protein (0.2, 0.4, 2, 10 μM) was incubated with 45 bp dsDNA (2 μM) in a high-salt buffer containing 20 mM HEPES-NaOH pH 7.8, […], 1 mM DTT at 4° C. for 20 min. The reconstitution mixture was then transferred into 8-10 kDa molecular weight cut-off dialysis tubing (Spectrum Labs), and placed into a beaker of the high-salt buffer. The KCl concentration was reduced gradually by slowly replacing high-salt buffer with low-salt buffer (20 mM HEPES-KOH pH 7.5, 50 mM KCl, 1 mM DTT) with a peristaltic pump (Bio-Rad) at a rate of […] for 48 hr at 4° C. After gradient dialysis, reactions were supplemented to 5% glycerol, and subsequently separated on a 2% agarose gel in 0.5×TBE buffer at 4° C. Agarose gels were stained in a solution containing 10 μg ml^−1 ethidium bromide and visualized with a ChemiDoc™ MP Imaging System (Bio-Rad). Alternatively, where indicated in FIGS. 8A and 8C, cGAS-DNA complexes were assembled by incubating directly in reaction buffer containing 20 mM HEPES-NaOH pH 7.8, […], 1 mM DTT at 4° C. for 20 min and analyzed by electrophoretic mobility shift analysis as indicated above.

17 bp DNA = assay: In vitro cGAS 2′3′ cGAMP synthesis assay, DNA length specificity; format: biochemical
Experimental: […]. Briefly, 1 μM cGAS ([…], SEQ ID NO: 6; antisense: 5′-[…]-3′, SEQ ID NO: 7) (Stetson and Medzhitov (2006) Immunity 24:93-103) in the 20 μl reaction buffer containing 50 mM Tris-HCl pH 7.5, 35 mM KCl, 5 mM Mg(OAc)2, 1 mM DTT, 25 μM ATP, 25 μM GTP, and [α-^32P] ATP (˜1 μCi) at 37° C. for 30 min. Reactions were terminated by heating at 95° C. for 3 min, and subsequently incubated with 4 U of alkaline phosphatase (New England Biolabs) at 37° C. for 30 min to hydrolyze unreacted NTPs. One microliter of each reaction was spotted on a PEI-Cellulose F thin-layer chromatography plate (EMD Biosciences) developed with 1.5 M KH2PO4 (pH 3.8) as a running buffer. Radiolabeled products were detected by Typhoon Trio Variable Mode Imager system (GE Healthcare) and quantified with ImageQuant 5.2. […]. Briefly, ATP/GTP titrations (0, 5, 10, 25, 50, 100, 200, 400, 800, and 1000 μM) were performed in the presence of fixed cGAS (1 μM) and 45 bp dsDNA concentration (1.5 μM) in 10 μl of reaction buffer containing 50 mM Tris-HCl pH 7.5, 35 mM KCl, 5 mM Mg(OAc)2, 1 mM DTT, and [α-^32P] ATP (˜1 μCi) at 37° C. for 5 min. Reactions were terminated and analyzed using thin layer chromatography as indicated above. The ATP-dependent cGAS enzyme kinetics were plotted and fitted according to Michaelis-Menten substrate inhibition analysis in GraphPad Prism (version 7.0c).

V. cholerae genomic DNA = assay: In vitro cGAS 2′3′ cGAMP synthesis assay with bacterial genomic DNA; format: biochemical, Vibrio cholerae; conditions: purified V. cholerae genomic DNA

Molecule	V. cholerae chemotaxis repression (V. cholerae)	higher-order cGAS-DNA complex formation (45 bp dsDNA)	2′3′ cGAMP synthesis / enzyme activation in response to short DNA (17 bp DNA)	lower molecular weight minimal cGAS-DNA complex formation (45 bp dsDNA)	further results
dncV	inhibited chemotaxis	–	–	–	–
hcGAS	no loss of chemotaxis	preferentially formed higher-order oligomeric complexes	remained inactive	–	enhanced 2′3′ cGAMP synthesis versus wild type hcGAS [1]: > 15 fold; 2′3′ cGAMP synthesis ([1]; listed as hcGAS*): activity comparable to wildtype mcGAS; catalytic efficiency of 2′3′ cGAMP synthesis, fold less efficient than mcGAS ([1]; varying ATP concentration, Michaelis-Menten with substrate inhibition): ~20 fold
mcGAS	potently arrested chemotaxis	–	recognized both 45 bp and 17 bp DNA with near equal efficiency	formed two types of DNA complexes	2′3′ cGAMP synthesis in response to bacterial genomic DNA (V. cholerae genomic DNA): produces more 2′3′ cGAMP than hcGAS
hcGAS K187N/L195R (protein, UniProt Q8N884 1-522, looked up, variant K187N L195R) Cyclic GMP-AMP synthase: MQPWHGKAMQRASEAGATAPKASARNARGAPMDPTESPAAPEAALPKAGKFGPARKSGSRQKKSAPDTQERPPVRATGARAKKAPQRAQDTQPSDATSAPGAEGLEPPAAREPALSRAGSCRQRGARCSTKPRPPPGPWDVPSPGLPVSAPILVRRDAAPGASKLRAVLEKLKLSRDDISTAAGMVNGVVDHLLRRLKCDSAFRGVGLLNTGSYYEHVKISAPNEFDVMFKLEVPRIQLEEYSNTRAYYFVKFKRNPKENPLSQFLEGEILSASKMLSKFRKIIKEEINDIKDTDVIMKRKRGGSPAVTLLISEKISVDITLALESKSSWPASTQEGLRIQNWLSAKVRKQLRLKPFYLVPKHAKEGNGFQEETWRLSFSHIEKEILNNHGKSKTCCENKEEKCCRKDCLKLMKYLLEQLKERFKDKKHLDKFSSYHVKTAFFHVCTQNPQDSQWDRKDLGLCFDNCVTYFLQCLRTEKLENYFIPEFNLFSSNLIDKRSKEFLTKQIEYERNNEFPVFDEF	potently inhibited V. cholerae chemotaxis	unaffected	full enzyme activation	restored the ability of hcGAS to form a stable lower molecular weight protein-DNA complex	2′3′ cGAMP synthesis [1]: elevated 2′3′ cGAMP synthesis; also recorded: dramatically enhanced 2′3′ cGAMP synthesis; enzyme kinetics of 2′3′ cGAMP synthesis ([1]; varying ATP concentration, compared to mcGAS): nearly equal to mcGAS
L195R (protein, listed as Homo sapiens) MQPWHGKAMQRASEAGATAPKASARNARGAPMDPTESPAAPEAALPKAGKFGPARKSGSRQKKSAPDTQERPPVRATGARAKKAPQRAQDTQPSDATSAPGAEGLEPPAAREPALSRAGSCRQRGARCSTKPRPPPGPWDVPSPGLPVSAPILVRRDAAPGASKLRAVLEKLKLSRDDISTAAGMVKGVVDHLLRRLKCDSAFRGVGLLNTGSYYEHVKISAPNEFDVMFKLEVPRIQLEEYSNTRAYYFVKFKRNPKENPLSQFLEGEILSASKMLSKFRKIIKEEINDIKDTDVIMKRKRGGSPAVTLLISEKISVDITLALESKSSWPASTQEGLRIQNWLSAKVRKQLRLKPFYLVPKHAKEGNGFQEETWRLSFSHIEKEILNNHGKSKTCCENKEEKCCRKDCLKLMKYLLEQLKERFKDKKHLDKFSSYHVKTAFFHVCTQNPQDSQWDRKDLGLCFDNCVTYFLQCLRTEKLENYFIPEFNLFSSNLIDKRSKEFLTKQIEYERNNEFPVFDEF	Neither K187N nor L195R alone was sufficient to enhance hcGAS activity	–	–	–	–
K187N (protein, listed as Homo sapiens) MQPWHGKAMQRASEAGATAPKASARNARGAPMDPTESPAAPEAALPKAGKFGPARKSGSRQKKSAPDTQERPPVRATGARAKKAPQRAQDTQPSDATSAPGAEGLEPPAAREPALSRAGSCRQRGARCSTKPRPPPGPWDVPSPGLPVSAPILVRRDAAPGASKLRAVLEKLKLSRDDISTAAGMVNGVVDHLLLRLKCDSAFRGVGLLNTGSYYEHVKISAPNEFDVMFKLEVPRIQLEEYSNTRAYYFVKFKRNPKENPLSQFLEGEILSASKMLSKFRKIIKEEINDIKDTDVIMKRKRGGSPAVTLLISEKISVDITLALESKSSWPASTQEGLRIQNWLSAKVRKQLRLKPFYLVPKHAKEGNGFQEETWRLSFSHIEKEILNNHGKSKTCCENKEEKCCRKDCLKLMKYLLEQLKERFKDKKHLDKFSSYHVKTAFFHVCTQNPQDSQWDRKDLGLCFDNCVTYFLQCLRTEKLENYFIPEFNLFSSNLIDKRSKEFLTKQIEYERNNEFPVFDEF	Neither K187N nor L195R alone was sufficient to enhance hcGAS activity	–	–	–	–
